Where two headings read alike, the source gives them in different places.
Legend:
betacellulin = experiment: Inhibition of betacellulin shedding in A549 cells; type: cell-based; details: for inhibition at 40 µM: Homo sapiens, A549, read-out: BTC (betacellulin) shedding inhibition
zinc metalloproteinases = experiment: Selectivity testing against extended panel of zinc metalloproteinases; type: biochemical; details: ADAM17 versus five other metzincins
Heregulin = experiment: Inhibition of heregulin shedding in A549 cells; type: cell-based; details: for inhibition at 40 µM: Homo sapiens, A549, read-out: Heregulin shedding inhibition
TGFα = experiment: Inhibition of TGFα shedding in A549 cells; type: cell-based; details: for inhibition at 40 µM: Homo sapiens, A549, read-out: TGFα shedding inhibition
CXCL16 = CXCL16 shedding inhibition in HTSMC; type: cell-based, human; details: for CXCL16 shedding inhibition: HTSMC, 10 μM; for inhibition at 10 µM: Homo sapiens, read-out: CXCL16 shedding inhibition
A549 cells [1] = experiment: CellTiter Glo cell viability assay; type: cell-based; details: 72 h, up to 33 μM
wtPTK7 = experiment: Inhibition of PTK7 shedding in SW480 cells; type: cell-based
A549 cells [2] = experiment: Synergy studies, A549 viability assay
MDA-MB-231 cells = experiment: CellTiter Glo cell viability assay; type: cell-based; details: 72 h, up to 33 μM
ADAM10 = ADAM10 (Homo sapiens, UniProt O14672); experiment: ADAM10 glycosylated substrate assay; type: biochemical
Notch = details: SKMEL-28, 25 μM; ref Personal communication from Dr. Kaushik (Kansas University Medical Center); cited from earlier work
HT1080 cells [3] = experiment: Transwell invasion assay; type: cell-based, human; details: Matrigel
L622D-PTK7 = experiment: Inhibition of PTK7 shedding in HT1080-L622D cells; type: cell-based, human
HEPG2 cells = experiment: CellTiter Glo cell viability assay; type: cell-based; details: 72 h, up to 33 μM
ADAM17 = ADAM17 (Homo sapiens, UniProt P78536); experiment: ADAM17 glycosylated substrate assay; type: biochemical
MMP9 = MMP9 (Homo sapiens, UniProt P14780); experiment: MMP assay; type: biochemical
MMP2 = MMP2 (Homo sapiens, UniProt P08253); experiment: MMP assay; type: biochemical
TNFα = experiment: Inhibition of TNFα shedding in THP-1 cells; type: cell-based; details: Homo sapiens, THP-1, read-out: TNFα shedding inhibition
MMP8 = MMP8 (Homo sapiens, UniProt P22894); experiment: MMP assay; type: biochemical
MMP14 = MMP14 (Homo sapiens, UniProt P50281); experiment: MMP assay; type: biochemical
[4] = test system: EGFR ligand (heregulin, TGFα, HB-EGF, amphiregulin, and EGF); details: cited from earlier work
PTK7 = details: cited from earlier work
HT1080 cells [5] = details: cited from earlier work

Sequence of ADAM17 (P78536 215-824): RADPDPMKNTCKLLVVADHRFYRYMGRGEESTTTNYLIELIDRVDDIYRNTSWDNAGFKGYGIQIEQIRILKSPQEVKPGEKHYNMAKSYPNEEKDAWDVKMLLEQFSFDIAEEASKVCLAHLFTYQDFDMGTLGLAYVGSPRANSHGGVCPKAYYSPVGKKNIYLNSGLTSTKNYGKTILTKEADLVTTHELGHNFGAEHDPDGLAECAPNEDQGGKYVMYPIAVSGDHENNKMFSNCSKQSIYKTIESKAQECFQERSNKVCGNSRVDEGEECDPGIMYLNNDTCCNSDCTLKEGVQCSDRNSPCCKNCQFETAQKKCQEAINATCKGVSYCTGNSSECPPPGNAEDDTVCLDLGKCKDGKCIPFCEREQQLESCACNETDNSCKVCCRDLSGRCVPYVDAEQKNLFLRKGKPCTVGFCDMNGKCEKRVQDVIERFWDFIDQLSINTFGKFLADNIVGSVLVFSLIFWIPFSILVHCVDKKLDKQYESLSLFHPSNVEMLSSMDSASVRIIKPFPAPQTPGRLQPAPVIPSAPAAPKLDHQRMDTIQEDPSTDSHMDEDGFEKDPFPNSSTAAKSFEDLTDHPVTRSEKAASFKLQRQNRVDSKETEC
Sequence of ADAM10 (O14672 214-748): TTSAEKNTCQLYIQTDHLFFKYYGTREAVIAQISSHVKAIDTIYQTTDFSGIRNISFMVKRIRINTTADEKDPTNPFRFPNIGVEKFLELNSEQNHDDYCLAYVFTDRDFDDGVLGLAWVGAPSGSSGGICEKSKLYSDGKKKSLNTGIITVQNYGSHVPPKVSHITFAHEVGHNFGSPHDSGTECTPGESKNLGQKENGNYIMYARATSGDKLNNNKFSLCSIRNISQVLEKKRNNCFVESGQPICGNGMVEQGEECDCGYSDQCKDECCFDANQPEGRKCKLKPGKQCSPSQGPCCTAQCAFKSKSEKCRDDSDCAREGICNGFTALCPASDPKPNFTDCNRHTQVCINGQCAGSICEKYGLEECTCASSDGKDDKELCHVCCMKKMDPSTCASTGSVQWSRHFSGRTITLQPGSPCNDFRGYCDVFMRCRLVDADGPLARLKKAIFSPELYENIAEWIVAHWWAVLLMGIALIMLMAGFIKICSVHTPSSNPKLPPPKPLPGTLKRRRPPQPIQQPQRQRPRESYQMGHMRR
Sequence of MMP2 (P08253 110-660, species assumed): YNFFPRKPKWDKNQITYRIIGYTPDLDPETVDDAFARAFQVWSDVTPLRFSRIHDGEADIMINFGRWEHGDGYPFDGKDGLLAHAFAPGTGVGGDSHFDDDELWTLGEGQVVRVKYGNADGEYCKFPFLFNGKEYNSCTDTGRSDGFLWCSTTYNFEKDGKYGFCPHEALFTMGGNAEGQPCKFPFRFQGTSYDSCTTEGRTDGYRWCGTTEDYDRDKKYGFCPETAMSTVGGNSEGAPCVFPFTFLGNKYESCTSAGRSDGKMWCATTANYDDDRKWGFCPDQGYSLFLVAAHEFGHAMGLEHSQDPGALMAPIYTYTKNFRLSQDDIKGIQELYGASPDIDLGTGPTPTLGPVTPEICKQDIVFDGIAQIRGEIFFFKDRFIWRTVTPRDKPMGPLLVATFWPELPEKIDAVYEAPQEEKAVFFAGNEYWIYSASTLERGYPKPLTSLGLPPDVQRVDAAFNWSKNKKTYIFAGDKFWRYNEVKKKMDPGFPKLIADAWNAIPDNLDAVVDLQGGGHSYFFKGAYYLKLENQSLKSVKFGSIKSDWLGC
Sequence of MMP8 (P22894 101-467, species assumed): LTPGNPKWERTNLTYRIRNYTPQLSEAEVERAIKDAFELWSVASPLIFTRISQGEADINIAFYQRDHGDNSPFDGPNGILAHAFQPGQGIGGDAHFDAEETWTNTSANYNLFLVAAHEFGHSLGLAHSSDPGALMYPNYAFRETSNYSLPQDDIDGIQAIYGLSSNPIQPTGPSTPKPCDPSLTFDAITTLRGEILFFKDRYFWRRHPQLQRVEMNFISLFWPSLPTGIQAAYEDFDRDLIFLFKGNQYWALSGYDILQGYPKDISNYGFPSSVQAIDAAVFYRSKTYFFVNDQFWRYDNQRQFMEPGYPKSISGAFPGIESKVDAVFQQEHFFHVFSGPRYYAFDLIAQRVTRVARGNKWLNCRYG
Sequence of MMP9 (P14780 94-707, species assumed): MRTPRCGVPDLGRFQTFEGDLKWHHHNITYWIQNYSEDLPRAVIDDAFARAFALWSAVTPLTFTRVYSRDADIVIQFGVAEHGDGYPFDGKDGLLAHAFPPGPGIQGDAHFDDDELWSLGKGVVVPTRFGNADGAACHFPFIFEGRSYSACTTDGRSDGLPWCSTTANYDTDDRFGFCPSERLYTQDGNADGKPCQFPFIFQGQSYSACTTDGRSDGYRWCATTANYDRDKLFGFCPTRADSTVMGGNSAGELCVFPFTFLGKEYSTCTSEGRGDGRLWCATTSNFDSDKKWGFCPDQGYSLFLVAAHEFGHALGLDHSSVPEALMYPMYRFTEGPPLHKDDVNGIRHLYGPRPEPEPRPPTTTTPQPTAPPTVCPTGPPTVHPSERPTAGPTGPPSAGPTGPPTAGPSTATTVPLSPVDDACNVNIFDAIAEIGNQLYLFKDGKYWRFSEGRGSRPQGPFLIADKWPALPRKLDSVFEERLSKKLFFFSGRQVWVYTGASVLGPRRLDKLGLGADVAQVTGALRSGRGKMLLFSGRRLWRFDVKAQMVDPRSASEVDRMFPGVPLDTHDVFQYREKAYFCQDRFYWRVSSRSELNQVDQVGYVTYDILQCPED

SMILES | inhibition at 40 µM (betacellulin) [%] | selectivity profile (zinc metalloproteinases) | inhibition at 40 µM (Heregulin) [%] | inhibition at 40 µM (TGFα) [%] | CXCL16 shedding inhibition (CXCL16) | inhibition at 10 µM (CXCL16) [%] | viability of MDA-MB-231 cells (MDA-MB-231 cells) | viability of HEPG2 cells (HEPG2 cells) | further results
CCCC[C@H]1CN([C@@H](Cc2ccc(O)cc2)CN2CCC[C@H]2CN2C(=O)C(=O)NC[C@H]2Cc2ccc3ccccc3c2)C(=O)C(=O)N1CCC12CC3CC(CC(C3)C1)C2 [Compound 16, (S)-4-(2-(Adamantan-1-yl)ethyl)-5-butyl-1-((S)-1-(4-hydroxyphenyl)-3-((S)-2-(((R)-6-(naphthalen-2-ylmethyl)-2,3-dioxopiperazin-1-yl)methyl)pyrrolidin-1-yl)propan-2-yl)piperazine-2,3-dione] | 0 | inhibiting only ADAM17 | 0 | 0 | did not inhibit | 0 | – | – | –
O=C1NC[C@@H](Cc2ccc(O)cc2)N(C[C@@H]2CCCN2C[C@@H](Cc2ccc3ccccc3c2)N2C[C@H](Cc3ccc(O)cc3)N(CCC34CC5CC(CC(C5)C3)C4)C(=O)C2=O)C1=O [Compound 17, (5R)-4-(2-((1R,3R)-Adamantan-1-yl)ethyl)-5-(4-hydroxybenzyl)-1-((2R)-1-(2-(((R)-6-(4-hydroxybenzyl)-2,3-dioxopiperazin-1-yl)-methyl)pyrrolidin-1-yl)-3-(naphthalen-2-yl)propan-2-yl)piperazine-2,3-dione] | 0 | – | 100 | 0 | did not inhibit | 0 | did not inhibit viability | did not inhibit viability | viability of A549 cells (A549 cells [1]): no intrinsic activity; PTK7 shedding inhibition (wtPTK7; SW480 (wtPTK7), PMA, 25–100 μM): 0–82%; shedding of wtPTK-7 (wtPTK7; SW480, PMA stimulated, 50 and 100 μM): inhibited shedding; potentiation of gefitinib activity against A549 cells (A549 cells [2]; 40 μM compound 17): potentiated gefitinib activity; potentiation of doxorubicin activity (A549 cells [2]; A549, 40 μM compound 17): did not potentiate the activity; potentiation of etoposide activity (A549 cells [2]; A549, 40 μM compound 17): did not potentiate the activity; Heregulin shedding inhibition (Heregulin; A549, PMA, 40 μM): completely inhibited shedding; shedding of TGFα (TGFα; A549, up to 100 μM): did not affect shedding; ADAM10 IC50 (ADAM10; Table 4 selectivity panel): did not inhibit; Notch shedding inhibition (Notch): 0%; invasion of HT1080 cells (HT1080 cells [3]): dose-dependent inhibition of invasion; PTK7 shedding inhibition (L622D-PTK7; HT1080 (L622D-PTK7), PMA, 25–100 μM): 25–50%; shedding of L622D-PTK7 (L622D-PTK7; HT1080-L622D, PMA stimulated, 50 and 100 μM): inhibited shedding
O=C1NC[C@H](Cc2ccccc2)N(C[C@@H]2CCCN2C[C@@H](CC2CCCCC2)N2C[C@H](Cc3ccc(O)cc3)N(CCc3ccccc3)C(=O)C2=O)C1=O [Compound 18, (S)-1((R)-1((S)-2-(((S)-6-Benzyl-2,3-dioxopiperazin-1-yl)methyl)-pyrrolidin-1-yl)-3-cyclohexylpropan-2-yl)-5-(4-hydroxybenzyl)-4-phenethylpiperazine-2,3-dione] | 0 | – | 0 | 0 | did not inhibit | 0 | did not inhibit viability | did not inhibit viability | –
O=C1NC[C@H](Cc2ccccc2)N(C[C@@H]2CCCN2C[C@H](Cc2ccccc2)N2C[C@H](Cc3ccc(O)cc3)N(CCC34CC5CC(CC(C5)C3)C4)C(=O)C2=O)C1=O [Compound 20, (S)-4-(2-(Adamantan-1yl)ethyl)-1-((S)-1-((S)-2-(((S)-6-benzyl-2,3-dioxopiperazin-1-yl)methyl)pyrrolidin-1-yl)-3-phenylpropan-2-yl)-5-(4-hydroxybenzyl)piperazine-2,3-dione] | 0 | inhibiting only ADAM17 | 0 | 0 | did not inhibit | 0 | did not inhibit viability | did not inhibit viability | –
O=C1NC[C@H](Cc2ccccc2)N(C[C@@H]2CCCN2C[C@@H](CC2CCCCC2)N2C[C@H](Cc3ccccc3)N(CCc3ccccc3)C(=O)C2=O)C1=O [Compound 21, (S)-5-Benzyl-1-((R)-1-((S)-2-(((S)-6-benzyl-2,3-dioxopiperazin-1-yl)methyl)pyrrolidin-1-yl)-3-cyclohexylpropan-2-yl)-4-phenethylpiperazine-2,3-dione] | 0 | inhibiting only ADAM17 | – | 0 | – | – | – | – | IC50 (ADAM17): 8.5 µM; inhibition at 100 µM (ADAM17; read-out: ADAM17 %inhibition at 100 μM): 100%; IC50 (MMP9): > 100 µM; IC50 (MMP2): > 100 µM; inhibition at 25 µM (TNFα): 0%; IC50 (MMP8): > 100 µM; IC50 (ADAM10): > 100 µM; IC50 (MMP14): > 100 µM
COC(=O)N1CC2(CC2)C[C@H](C(=O)NO)[C@H]1C(=O)N1CC=C(c2ccccc2)CC1 [INCB3619] | – | – | – | – | – | – | – | – | heregulin shedding in A549 cells [4]: abrogation of heregulin shedding; shedding of PTK7 (PTK7): able to inhibit; invasion of HT1080 cells (HT1080 cells [5]): able to inhibit
CNC(=O)[C@@H](NC(=O)[C@H](CC(C)C)[C@H](O)C(=O)NO)C(C)(C)C [Marimastat, (2S,3R)-N4-[(1S)-2,2-dimethyl-1-[(methylamino)carbonyl]propyl]-N1,2-dihydroxy-3-(2-methylpropyl)butanediamide, reference compound] | – | – | – | – | – | – | – | – | shedding of EGFR ligands (heregulin, TGFα, HB-EGF, amphiregulin, EGF) ([4]; A549 cells): inhibited shedding of each tested EGFR ligand; betacellulin shedding inhibition (betacellulin; A549, 10 μM): almost complete inhibition; soluble TGFα in supernatant (TGFα; A549, PMA, 10 μM): decreased soluble TGFα in the supernatant of A549 cells to the level of non-PMA-treated control

Reference: paper PMC5420329 (Journal of medicinal chemistry, 2015)
